Source: patent US10966978B2, “Dose and regimen for HDM2-p53 interaction inhibitors” (Novartis AG, priority 2016, dated 2021)
Where two headings read alike, the source gives them in different places.

System: patients with advanced TP53 wild-type (WT) leukemias

Structure (SMILES): COc1ncc(-c2nc3c(n2C(C)C)[C@H](c2ccc(Cl)cc2)N(c2cc(Cl)cn(C)c2=O)C3=O)c(OC)n1 [HDM201, (S)-5-(5-Chloro-1-methyl-2-oxo-1,2-dihydro-pyridin-3-yl)-6-(4-chloro-phenyl)-2-(2,4-dimethoxy-pyrimidin-5-yl)-1-isopropyl-5,6-dihydro-1H-pyrrolo[3,4-d]imidazol-4-one]
- AE: Nausea (Regimen 2C N = 8, All Grades): 3 (37.5) n (%)
- AE: Neutropenia/Neutrophil Count Decreased (Regimen 2C N = 8, All Grades): 4 (50.0) n (%)
- AE: Oedema (Regimen 2C N = 8, All Grades): 0 n (%)
- AE: Oedema Peripheral (Regimen 2C N = 8, All Grades): 0 n (%)
- AE: Oral Disorder (Regimen 2C N = 8, All Grades): 0 n (%)
- AE: Pain In Extremity (Regimen 2C N = 8, All Grades): 0 n (%)
- AE: Pancytopenia (Regimen 2C N = 8, All Grades): 1 (12.5) n (%)
- AE: Pneumonia (Regimen 2C N = 8, All Grades): 0 n (%)
- AE: Pollakiuria (Regimen 2C N = 8, All Grades): 0 n (%)
- AE: Pyrexia (Regimen 2C N = 8, All Grades): 0 n (%)
- AE: Rash (Regimen 2C N = 8, All Grades): 0 n (%)
- AE: Rash Erythematous (Regimen 2C N = 8, All Grades): 0 n (%)
- AE: Rash Papular (Regimen 2C N = 8, All Grades): 0 n (%)
- AE: Rectal Haemorrhage (Regimen 2C N = 8, All Grades): 0 n (%)
- AE: Renal Failure (Regimen 2C N = 8, All Grades): 1 (12.5) n (%)
- AE: Skin Exfoliation (Regimen 2C N = 8, All Grades): 0 n (%)
- AE: Stomatitis (Regimen 2C N = 8, All Grades): 1 (12.5) n (%)
- AE: Subarachnoid Haemorrhage (Regimen 2C N = 8, All Grades): 0 n (%)
- AE: Thrombocytopenia/Platelet Count Decreased (Regimen 2C N = 8, All Grades): 5 (62.5) n (%)
- AE: Total (Regimen 2C N = 8, All Grades): 8 (100) n (%)
- AE: Tumour Lysis Syndrome (Regimen 2C N = 8, All Grades): 1 (12.5) n (%)
- AE: Vomiting (Regimen 2C N = 8, All Grades): 1 (12.5) n (%)
- AE: Weight Decreased (Regimen 2C N = 8, All Grades): 0 n (%)
- AE: White Blood Cell Count Decreased (Regimen 2C N = 8, All Grades): 2 (25.0) n (%)
- AE: Abdominal Discomfort (Regimen 2C N = 8, Grade 3/4): 0 n (%)
- AE: Abdominal Pain (Regimen 2C N = 8, Grade 3/4): 0 n (%)
- AE: Abdominal Pain Upper (Regimen 2C N = 8, Grade 3/4): 0 n (%)
- AE: Amylase Increased (Regimen 2C N = 8, Grade 3/4): 0 n (%)
- AE: Anaemia (Regimen 2C N = 8, Grade 3/4): 3 (37.5) n (%)
- AE: Arthralgia (Regimen 2C N = 8, Grade 3/4): 0 n (%)
- AE: Asthenia (Regimen 2C N = 8, Grade 3/4): 0 n (%)
- AE: Atrial Fibrillation (Regimen 2C N = 8, Grade 3/4): 0 n (%)
- AE: Atypical Pneumonia (Regimen 2C N = 8, Grade 3/4): 0 n (%)
- AE: Balanitis Candida (Regimen 2C N = 8, Grade 3/4): 0 n (%)
- AE: Blood Alkaline Phosphatase Increased (Regimen 2C N = 8, Grade 3/4): 0 n (%)
- AE: Blood Bilirubin Increased (Regimen 2C N = 8, Grade 3/4): 0 n (%)
- AE: Blood Creatinine Increased (Regimen 2C N = 8, Grade 3/4): 1 (12.5) n (%)
- AE: Blood Phosphorus Increased (Regimen 2C N = 8, Grade 3/4): 0 n (%)
- AE: Blood Uric Acid Increased (Regimen 2C N = 8, Grade 3/4): 0 n (%)
- AE: Bone Marrow Failure (Regimen 2C N = 8, Grade 3/4): 0 n (%)
- AE: C-Reactive Protein Increased (Regimen 2C N = 8, Grade 3/4): 0 n (%)
- AE: Cardiac Failure (Regimen 2C N = 8, Grade 3/4): 0 n (%)
- AE: Cellulitis (Regimen 2C N = 8, Grade 3/4): 0 n (%)
- AE: Chronic Graft Versus Host Disease (Regimen 2C N = 8, Grade 3/4): 0 n (%)
- AE: Conjunctival Haemorrhage (Regimen 2C N = 8, Grade 3/4): 0 n (%)
- AE: Constipation (Regimen 2C N = 8, Grade 3/4): 0 n (%)
- AE: Cough (Regimen 2C N = 8, Grade 3/4): 0 n (%)
- AE: Cystitis Viral (Regimen 2C N = 8, Grade 3/4): 0 n (%)
- AE: Cytomegalovirus Infection (Regimen 2C N = 8, Grade 3/4): 0 n (%)
- AE: Decreased Appetite (Regimen 2C N = 8, Grade 3/4): 0 n (%)
- AE: Diarrhoea (Regimen 2C N = 8, Grade 3/4): 0 n (%)
- AE: Dyspepsia (Regimen 2C N = 8, Grade 3/4): 0 n (%)
- AE: Dyspnoea (Regimen 2C N = 8, Grade 3/4): 0 n (%)
- AE: Epistaxis (Regimen 2C N = 8, Grade 3/4): 0 n (%)
- AE: Fatigue (Regimen 2C N = 8, Grade 3/4): 0 n (%)
- AE: Febrile Neutropenia (Regimen 2C N = 8, Grade 3/4): 3 (37.5) n (%)
- AE: Gamma-Glutamyltransferase Increased (Regimen 2C N = 8, Grade 3/4): 0 n (%)
- AE: General Physical Health Deterioration (Regimen 2C N = 8, Grade 3/4): 0 n (%)
- AE: Gingival Bleeding (Regimen 2C N = 8, Grade 3/4): 0 n (%)
- AE: Graft Versus Host Disease (Regimen 2C N = 8, Grade 3/4): 0 n (%)
- AE: Haemoglobin Decreased (Regimen 2C N = 8, Grade 3/4): 0 n (%)
- AE: Headache (Regimen 2C N = 8, Grade 3/4): 0 n (%)
- AE: Hyperbilirubinaemia (Regimen 2C N = 8, Grade 3/4): 0 n (%)
- AE: Hyperglycaemia (Regimen 2C N = 8, Grade 3/4): 0 n (%)
- AE: Hyperkalaemia (Regimen 2C N = 8, Grade 3/4): 0 n (%)
- AE: Hyperphosphataemia (Regimen 2C N = 8, Grade 3/4): 0 n (%)
- AE: Hypoalbuminaemia (Regimen 2C N = 8, Grade 3/4): 0 n (%)
- AE: Hypocalcaemia (Regimen 2C N = 8, Grade 3/4): 0 n (%)
- AE: Hypokalaemia (Regimen 2C N = 8, Grade 3/4): 0 n (%)
- AE: Hypomagnesaemia (Regimen 2C N = 8, Grade 3/4): 0 n (%)
- AE: Hyponatraemia (Regimen 2C N = 8, Grade 3/4): 0 n (%)
- AE: Hypophosphataemia (Regimen 2C N = 8, Grade 3/4): 0 n (%)
- AE: Hypotension (Regimen 2C N = 8, Grade 3/4): 0 n (%)
- AE: Infection (Regimen 2C N = 8, Grade 3/4): 0 n (%)
- AE: Infective Glossitis (Regimen 2C N = 8, Grade 3/4): 0 n (%)
- AE: Iron Overload (Regimen 2C N = 8, Grade 3/4): 0 n (%)
- AE: Leukopenia (Regimen 2C N = 8, Grade 3/4): 0 n (%)
- AE: Lip Oedema (Regimen 2C N = 8, Grade 3/4): 0 n (%)
- AE: Lipase Increased (Regimen 2C N = 8, Grade 3/4): 0 n (%)
- AE: Macular Oedema (Regimen 2C N = 8, Grade 3/4): 0 n (%)
- AE: Malaise (Regimen 2C N = 8, Grade 3/4): 0 n (%)
- AE: Mouth Haemorrhage (Regimen 2C N = 8, Grade 3/4): 0 n (%)
- AE: Nausea (Regimen 2C N = 8, Grade 3/4): 0 n (%)
- AE: Neutropenia/Neutrophil Count Decreased (Regimen 2C N = 8, Grade 3/4): 3 (37.5) n (%)
- AE: Oedema (Regimen 2C N = 8, Grade 3/4): 0 n (%)
- AE: Oedema Peripheral (Regimen 2C N = 8, Grade 3/4): 0 n (%)
- AE: Oral Disorder (Regimen 2C N = 8, Grade 3/4): 0 n (%)
- AE: Pain In Extremity (Regimen 2C N = 8, Grade 3/4): 0 n (%)
- AE: Pancytopenia (Regimen 2C N = 8, Grade 3/4): 1 (12.5) n (%)
- AE: Pneumonia (Regimen 2C N = 8, Grade 3/4): 0 n (%)
- AE: Pollakiuria (Regimen 2C N = 8, Grade 3/4): 0 n (%)
- AE: Pyrexia (Regimen 2C N = 8, Grade 3/4): 0 n (%)
- AE: Rash (Regimen 2C N = 8, Grade 3/4): 0 n (%)
- AE: Rash Erythematous (Regimen 2C N = 8, Grade 3/4): 0 n (%)
- AE: Rash Papular (Regimen 2C N = 8, Grade 3/4): 0 n (%)
- AE: Rectal Haemorrhage (Regimen 2C N = 8, Grade 3/4): 0 n (%)
- AE: Renal Failure (Regimen 2C N = 8, Grade 3/4): 1 (12.5) n (%)
- AE: Skin Exfoliation (Regimen 2C N = 8, Grade 3/4): 0 n (%)
- AE: Stomatitis (Regimen 2C N = 8, Grade 3/4): 0 n (%)
- AE: Subarachnoid Haemorrhage (Regimen 2C N = 8, Grade 3/4): 0 n (%)
- AE: Thrombocytopenia/Platelet Count Decreased (Regimen 2C N = 8, Grade 3/4): 5 (62.5) n (%)
- AE: Total (Regimen 2C N = 8, Grade 3/4): 5 (62.5) n (%)
- AE: Tumour Lysis Syndrome (Regimen 2C N = 8, Grade 3/4): 1 (12.5) n (%)
- AE: Vomiting (Regimen 2C N = 8, Grade 3/4): 0 n (%)
- AE: Weight Decreased (Regimen 2C N = 8, Grade 3/4): 0 n (%)
- AE: White Blood Cell Count Decreased (Regimen 2C N = 8, Grade 3/4): 2 (25.0) n (%)
